Measurements: PubChem BioAssay AID274 (DTP/NCI, 2004)
“And” between values parts separate entries of the source, which are not always exact repeats. Identical values can stand only once. Inconclusive results and toxic doses are left out.

Test system: BDF1 mice, Lewis lung carcinoma iv, survival T/C
Assay: NCI In Vivo Anticancer Drug Screen. Data for tumor model Lewis Lung Carcinoma (intravenous) in B6D2F1 (BDF1) mice
Conditions: schedule: Q01DX009 (ip), higher = longer survival
Experimental: The antitumor activity of compounds was measured in mice bearing transplantable tumors. Survival or tumor size were measured and the results are expressed as the measurement made in the treated group (T) divided by the measurement made in the vehicle treated control group (C). The tumor model used in this assay is Lewis Lung Carcinoma (intravenous) in B6D2F1 (BDF1) mice

[1] = endpoint: median survival time, dose: 12.5 mg/kg/injection, vehicle: saline
[2] = endpoint: median survival time, dose: 25.0 mg/kg/injection, vehicle: saline
[3] = endpoint: median survival time, dose: 50.0 mg/kg/injection, vehicle: saline
[4] = endpoint: median survival time, dose: 100.0 mg/kg/injection, vehicle: saline
[5] = endpoint: median survival time, dose: 200.0 mg/kg/injection, vehicle: saline
[6] = endpoint: median survival time, dose: 6.25 mg/kg/injection, vehicle: saline with Tween-80
[7] = endpoint: median survival time, dose: 12.5 mg/kg/injection, vehicle: saline with Tween-80
[8] = endpoint: median survival time, dose: 25.0 mg/kg/injection, vehicle: saline with Tween-80
[9] = endpoint: median survival time, dose: 50.0 mg/kg/injection, vehicle: saline with Tween-80
[10] = endpoint: median survival time, dose: 100.0 mg/kg/injection, vehicle: saline with Tween-80
[11] = endpoint: median survival time, dose: 3.0 mg/kg/injection, vehicle: saline
[12] = endpoint: median survival time, dose: 0.78 mg/kg/injection, vehicle: saline
[13] = endpoint: median survival time, dose: 1.56 mg/kg/injection, vehicle: saline
[14] = endpoint: median survival time, dose: 3.12 mg/kg/injection, vehicle: saline
[15] = endpoint: median survival time, dose: 6.25 mg/kg/injection, vehicle: saline

`Nc1nc(=S)c2ncn(C3OC(COC(=O)c4ccc(Cl)cc4)C(OC(=O)c4ccc(Cl)cc4)C3OC(=O)c3ccc(Cl)cc3)c2[nH]1` (centres undefined) was tested, and the T/C (endpoint: median survival time, dose: 18.75 mg/kg/injection, vehicle: Klucel (hydroxypropylcellulose) (HPC)) was 103 % of control, the T/C (endpoint: median survival time, dose: 37.5 mg/kg/injection, vehicle: Klucel (hydroxypropylcellulose) (HPC)) was 106 % of control and the T/C (endpoint: median survival time, dose: 150.0 mg/kg/injection, vehicle: Klucel (hydroxypropylcellulose) (HPC)) was 89 % of control.
In the case of `CCCNc1ncnc2c1cnn2C`, the T/C [1] is reported as 100 % of control, the T/C [2] is reported as 105 % of control and the T/C [3] is reported as 109 % of control.
In the case of `CN(C)[C@@H]1C(=O)C(C(N)=O)=C(O)[C@@]2(O)C(=O)C3=C(O)c4c(O)ccc(Cl)c4[C@@](C)(O)[C@H]3C[C@@H]12`, the T/C [1] is reported as 111 % of control, the T/C [2] is reported as 101 % of control and the T/C [3] is reported as 99 % of control. The T/C [4] was 103 % of control and the T/C [5] was 107 % of control.
For `C[Si](C)(C)O/C=C1\CCCCC1=O`, the T/C [6] was 96 % of control and 98 % of control, the T/C [7] was 96 % of control and 98 % of control and the T/C [8] was 93 % of control and 102 % of control. The T/C [9] was 102 % of control and 107 % of control, the T/C [10] was 104 % of control and 116 % of control and the T/C (endpoint: median survival time, dose: 200.0 mg/kg/injection, vehicle: saline with Tween-80) was 104 % of control and 113 % of control.
In the case of `O=C(NCCCCCCCCCCNC(=O)N1CC1)N1CC1`, the T/C (endpoint: median survival time, dose: 0.75 mg/kg/injection, vehicle: saline) is reported as 117 % of control, the T/C (endpoint: median survival time, dose: 1.5 mg/kg/injection, vehicle: saline) is reported as 110 % of control and the T/C [11] is reported as 122 % of control. For the same molecule, the T/C (endpoint: median survival time, dose: 6.0 mg/kg/injection, vehicle: saline) was 117 % of control.
In the case of `O=C1N=C(Oc2ccccc2)SC1=O`, the T/C [7] is reported as 100 % of control and 109 % of control, the T/C [8] is reported as 97 % of control and the T/C [9] is reported as 94 % of control and 102 % of control. The T/C [10] was 100 % of control.
In the case of `N=[N+]=CC(=O)OCC(N)C(=O)O` (centres undefined), the T/C [12] is reported as 98 % of control, the T/C [13] is reported as 103 % of control and the T/C [14] is reported as 100 % of control. The T/C [15] was 104 % of control and the T/C [1] was 117 % of control.
With `COc1cccc2c1C(=O)c1c(O)c3c(c(O)c1C2=O)CC(O)(/C(C)=N/NC(=O)CCC(=O)N/N=C(\C)C1(O)Cc2c(O)c4c(c(O)c2C(OC2CC(N)C(O)C(C)O2)C1)C(=O)c1c(OC)cccc1C4=O)CC3OC1CC(N)C(O)C(C)O1` (centres undefined) the T/C (endpoint: median survival time, dose: 1.5 mg/kg/injection, vehicle: water) was 96 % of control, the T/C (endpoint: median survival time, dose: 3.0 mg/kg/injection, vehicle: water) was 108 % of control and the T/C (endpoint: median survival time, dose: 6.0 mg/kg/injection, vehicle: water) was 101 % of control. For the same molecule, the T/C (endpoint: median survival time, dose: 12.0 mg/kg/injection, vehicle: water) was 123 % of control.
`O=NN(CCCl)C(=O)NC1[C@H](O)CCC[C@@H]1O` (some centres undefined) was tested, and the T/C (endpoint: median survival time, dose: 0.62 mg/kg/injection, vehicle: saline) was 105 % of control, the T/C (endpoint: median survival time, dose: 1.25 mg/kg/injection, vehicle: saline) was 120 % of control and the T/C (endpoint: median survival time, dose: 2.5 mg/kg/injection, vehicle: saline) was 159 % of control. The T/C (endpoint: median survival time, dose: 5.0 mg/kg/injection, vehicle: saline) was 278 % of control.
For `Nc1cc2[nH]cnc2c(=O)[nH]1`, the T/C (endpoint: mean survival time, dose: 95.0 mg/kg/injection, vehicle: Klucel (hydroxypropylcellulose) (HPC)) was 118 % of control and the T/C (endpoint: mean survival time, dose: 140.0 mg/kg/injection, vehicle: Klucel (hydroxypropylcellulose) (HPC)) was 90 % of control.
With `NNC(=S)N/N=C/c1ccccn1` the T/C [13] was 98 % of control, the T/C [14] was 102 % of control and the T/C [15] was 107 % of control. The T/C [1] was 114 % of control.
`Nc1ccc(OC(=O)Oc2ccc(N)cc2)cc1` was tested, and the T/C [4] was 102 % of control and the T/C [5] was 113 % of control.
In the case of `Cc1c2cc[n+](CCN3CCCCC3)cc2c(C)c2c1[nH]c1ccc(O)cc12`, the T/C (endpoint: median survival time, dose: 1.56 mg/kg/injection, vehicle: suspension in saline) is reported as 105 % of control, the T/C (endpoint: median survival time, dose: 3.12 mg/kg/injection, vehicle: suspension in saline) is reported as 100 % of control and the T/C (endpoint: median survival time, dose: 6.25 mg/kg/injection, vehicle: suspension in saline) is reported as 109 % of control. The T/C (endpoint: median survival time, dose: 12.5 mg/kg/injection, vehicle: suspension in saline) was 118 % of control and the T/C (endpoint: median survival time, dose: 25.0 mg/kg/injection, vehicle: suspension in saline) was 122 % of control.
With `CCCCCc1cc(O)c2c(c1)OC(C)(C)[C@@H]1CCC(C)=C[C@@H]21` the T/C (endpoint: median survival time, dose: 200.0 mg/kg/injection, vehicle: other) was 89 % of control and the T/C (endpoint: median survival time, dose: 800.0 mg/kg/injection, vehicle: other) was 88 % of control.
With `NC1=NC(=O)N2CC12` (centres undefined) the T/C [1] was 107 % of control, the T/C [2] was 110 % of control and the T/C [3] was 105 % of control. For the same molecule, the T/C [4] was 105 % of control and the T/C [5] was 109 % of control.
In the case of `COC(=O)c1cc2cc3c(c(O)c2c(=O)o1)OC1(Cc2c(O)c4c(c(O)c2O1)C(=O)C(OC)CC4=O)CC3O` (centres undefined), the T/C (endpoint: median survival time, dose: 3.13 mg/kg/injection, vehicle: saline with Tween-80) is reported as 102 % of control, the T/C [6] is reported as 110 % of control and the T/C [7] is reported as 122 % of control. The T/C [8] was 120 % of control.
`CC(=O)NC(C=O)OCC=O` (centres undefined) was tested, and the T/C (endpoint: median survival time, dose: 6.25 mg/kg/injection, vehicle: water) was 101 % of control, the T/C (endpoint: median survival time, dose: 12.5 mg/kg/injection, vehicle: water) was 110 % of control and the T/C (endpoint: median survival time, dose: 25.0 mg/kg/injection, vehicle: water) was 102 % of control. For the same molecule, the T/C (endpoint: median survival time, dose: 50.0 mg/kg/injection, vehicle: water) was 111 % of control and the T/C (endpoint: median survival time, dose: 100.0 mg/kg/injection, vehicle: water) was 106 % of control.
`ClCC[Se](Cl)(Cl)c1ccccc1` was tested, and the T/C [12] was 98 % of control, the T/C [13] was 109 % of control and the T/C [11] was 114 % of control.
In the case of `COC1/C=C\C=C(/C)C(=O)NC2=CC(=O)C=C(C2=O)C(OC)C(C)CC(OC)C(OC)C(C)/C=C(/C)C1OC(N)=O` (centres undefined), the T/C (endpoint: median survival time, dose: 0.18 mg/kg/injection, vehicle: Klucel (hydroxypropylcellulose) (HPC)) is reported as 112 % of control, the T/C (endpoint: median survival time, dose: 0.37 mg/kg/injection, vehicle: Klucel (hydroxypropylcellulose) (HPC)) is reported as 115 % of control and the T/C (endpoint: median survival time, dose: 0.75 mg/kg/injection, vehicle: Klucel (hydroxypropylcellulose) (HPC)) is reported as 112 % of control. For the same molecule, the T/C (endpoint: median survival time, dose: 1.5 mg/kg/injection, vehicle: Klucel (hydroxypropylcellulose) (HPC)) was 105 % of control.
With `C=C1C(=O)C2=CC1CCC(=O)C1(C)CCC(OC(C)=O)C(C)(C)C1CC2O` (centres undefined) the T/C (endpoint: median survival time, dose: 3.75 mg/kg/injection, vehicle: Klucel (hydroxypropylcellulose) (HPC)) was 105 % of control, the T/C (endpoint: median survival time, dose: 7.5 mg/kg/injection, vehicle: Klucel (hydroxypropylcellulose) (HPC)) was 100 % of control and the T/C (endpoint: median survival time, dose: 15.0 mg/kg/injection, vehicle: Klucel (hydroxypropylcellulose) (HPC)) was 100 % of control. The T/C (endpoint: median survival time, dose: 30.0 mg/kg/injection, vehicle: Klucel (hydroxypropylcellulose) (HPC)) was 104 % of control and the T/C (endpoint: median survival time, dose: 60.0 mg/kg/injection, vehicle: Klucel (hydroxypropylcellulose) (HPC)) was 93 % of control.
With `O=C(Nc1ccc(N=C=S)cc1Cl)c1cc(Cl)cc(Cl)c1O` the T/C (endpoint: median survival time, dose: 6.25 mg/kg/injection, vehicle: Klucel (hydroxypropylcellulose) (HPC)) was 97 % of control, the T/C (endpoint: median survival time, dose: 12.5 mg/kg/injection, vehicle: Klucel (hydroxypropylcellulose) (HPC)) was 97 % of control and the T/C (endpoint: median survival time, dose: 25.0 mg/kg/injection, vehicle: Klucel (hydroxypropylcellulose) (HPC)) was 105 % of control. The T/C (endpoint: median survival time, dose: 50.0 mg/kg/injection, vehicle: Klucel (hydroxypropylcellulose) (HPC)) was 116 % of control.
With `Cc1ccc(N=NN(C)C)cc1` the T/C [8] was 100 % of control, the T/C [9] was 105 % of control and the T/C [10] was 105 % of control.
With `C/C(=N\NC(N)=O)c1cccc(/C(C)=N/NC(N)=O)n1` the T/C [6] was 104 % of control, the T/C [7] was 100 % of control and the T/C [8] was 98 % of control. The T/C [9] was 103 % of control and the T/C [10] was 106 % of control.
`CC1CCOS(=O)O1` (centres undefined) was tested, and the T/C (endpoint: median survival time, dose: 10.0 mg/kg/injection, vehicle: saline) was 100 % of control, the T/C (endpoint: median survival time, dose: 20.0 mg/kg/injection, vehicle: saline) was 94 % of control and the T/C (endpoint: median survival time, dose: 40.0 mg/kg/injection, vehicle: saline) was 95 % of control.
